Like-named read-outs stand apart in the source and are kept apart here.
Target: BTK (Homo sapiens, UniProt Q06187)
Assay: biochemical
[1] = read-out: BTK inhibition (%), 0.75 uM BTK, […] probe 3l, 15 min preincubation

Chain of BTK (Q06187 402-655 limits assumed): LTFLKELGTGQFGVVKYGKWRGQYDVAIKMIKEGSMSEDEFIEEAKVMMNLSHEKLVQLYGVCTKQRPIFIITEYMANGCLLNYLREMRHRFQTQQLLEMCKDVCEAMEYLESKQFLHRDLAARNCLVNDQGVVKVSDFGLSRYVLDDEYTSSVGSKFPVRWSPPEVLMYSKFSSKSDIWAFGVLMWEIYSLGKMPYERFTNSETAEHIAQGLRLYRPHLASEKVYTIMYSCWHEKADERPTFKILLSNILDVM

inhibition at 10 µM [1] [%] | SMILES | inhibition at 10 µM (read-out: BTK inhibition (%)) [%]
-18.7 | CC1(C)CCC(C)(C)c2cc(NC(=O)c3ccc(C(=O)O)cc3)ccc21 [PCM-0214790] | 
87.2 | Fc1ccc(C(c2ccc(F)cc2)N2CCN(C/C=C/c3ccccc3)CC2)cc1 [PCM-0065210] | 
-18.6 | Fc1ccc2[nH]ccc2c1-c1nc(N2CCOCC2)c2sc(CN3CCN(CC4CC4)CC3)cc2n1 [PCM-0215422] | 
-10 | O=C(O)c1cc(O)cc(Cl)c1 [PCM-0216556] | 
-14.8 | Cc1cccc(C(C)c2cnc[nH]2)c1C (stereo not shown) [PCM-0095548] | 
-3.1 | CC1=CC(=O)c2ccccc2C1=O [PCM-0009823] | 
31 | O=C1[C@H](CC[C@H](O)c2ccc(F)cc2)[C@@H](c2ccc(O)cc2)N1c1ccc(F)cc1 [PCM-0095103] | 
-8.3 | CC(=O)OCC(=O)[C@@]1(O)CC[C@H]2[C@@H]3CCC4=CC(=O)CC[C@]4(C)[C@@]3(F)[C@@H](O)C[C@@]21C [PCM-0214907] | 
-9 | Nc1ccc(O)c(C(=O)O)c1 [PCM-0086222] | 
-19.5 | COc1ccc(CNCc2cccc3ccccc23)cc1 [PCM-0095454] | 
-6.2 | C=C1CC[C@@H]2[C@](C)(CO)[C@H](O)CC[C@@]2(C)[C@@H]1C/C=C1/C(=O)OC[C@H]1O [PCM-0094814] | 
32.7 | CN(C)c1cc(NC(=O)CNC(C)(C)C)c(O)c2c1C[C@H]1C[C@H]3[C@H](N(C)C)C(=O)C(C(N)=O)=C(O)[C@@]3(O)C(=O)C1=C2O [PCM-0214621] | 
-13.1 | CCCC1O[C@@H]2C[C@H]3[C@@H]4CCC5=CC(=O)C=C[C@]5(C)[C@H]4[C@@H](O)C[C@]3(C)[C@]2(C(=O)CO)O1 (stereo partly shown) [PCM-0214610] | 
-16.2 | CCOC(=O)c1cc2ccccc2oc1=O [PCM-0216280] | 
 | O=C(NCC1CCOCC1)c1cnc(Nc2ccc(Cl)cc2Cl)nc1C(F)(F)F [PCM-0095345] | -9.3
-3.4 | Cn1cc(-c2ccc3nnc(Sc4ccc5ncccc5c4)n3n2)cn1 [PCM-0094898] | 
-3.9 | Cc1ccc(Sc2cncc3sc(C(N)=O)cc23)cc1 [PCM-0095339] | 
-1.6 | N[C@@H](CC(=O)N1CCn2c(nnc2C(F)(F)F)C1)Cc1cc(F)c(F)cc1F [PCM-0214812] | 
-15.6 | C[C@]12CCC(=O)C=C1[C@@H]1C[C@@H]1[C@H]1[C@@H]3[C@@H]4C[C@@H]4[C@@]4(CCC(=O)O4)[C@@]3(C)CC[C@@H]12 [PCM-0214617] | 
-38.6 | Cc1onc(-c2ccccc2)c1-c1ccc(S(N)(=O)=O)cc1 [PCM-0095602] | 
3.4 | CCn1c(C(=O)N(C2CC2)C2CC2)cc2c3c(ncn3C)c(Nc3cc(C)n(C)n3)nc21 [PCM-0215708] | 
6.9 | CC1(C)O[C@@H]2C[C@H]3[C@@H]4CCC5=CC(=O)C=C[C@]5(C)[C@@]4(F)[C@@H](O)C[C@]3(C)[C@]2(C(=O)CO)O1 [PCM-0095180] | 
-10 | O=C1CCCC(=O)C1C(=O)c1ccc(C(F)(F)F)cc1[N+](=O)[O-] [PCM-0216128] | 
-9.3 | O=C(NCC1(c2nc(-c3ccccc3)cs2)CCOCC1)c1cccc(-c2noc(C(F)(F)F)n2)c1 [PCM-0215333] | 

inhibition at 10 µM [1] [%] | SMILES | inhibition at 10 µM (read-out: BTK inhibition (%)) [%]
-12.4 | CCCCCCCCCCCCCCCC(=O)OCC [PCM-0216630] | 
0 | C=C1[C@@H]2CC[C@@H](C2)[C@]1(C)CC/C=C(\C)CO [PCM-0216479] | 
-9.3 | COc1ccc2cc(C(=O)O)ccc2c1 [PCM-0216054] | 
-9.3 | OC[C@H]1NC[C@H](O)[C@@H](O)[C@@H]1O [PCM-0214950] | 
-14.8 | NS(=O)(=O)Cc1noc2ccccc12 [PCM-0214625] | 
17.1 | COc1ccc([C@@H]2Sc3ccccc3N(CCN(C)C)C(=O)[C@@H]2OC(C)=O)cc1 [PCM-0065036] | 
3.9 | C=C(C)[C@@H]1CC[C@]2(C(=O)O)CC[C@]3(C)[C@H](CC[C@@H]4[C@@]5(C)CC[C@H](O)C(C)(C)[C@@H]5CC[C@]43C)[C@@H]12 [PCM-0214730] | 
-12.5 | C[C@@H]1O[C@@H](O[C@H]2[C@H](O[C@H]3CC[C@@]4(C)[C@@H](CC[C@]5(C)[C@@H]4CC=C4[C@@H]6CC(C)(C)CC[C@]6(C(=O)O[C@@H]6O[C@H](CO[C@@H]7O[C@H](CO)[C@@H](O)[C@H](O)[C@H]7O)[C@@H](O)[C@H](O)[C@H]6O)CC[C@]45C)[C@]3(C)CO)OC[C@H](O)[C@@H]2O)[C@H](O)[C@H](O[C@@H]2O[C@H](CO)[C@@H](O[C@@H]3O[C@H](CO)[C@@H](O)[C@H](O)[C@H]3O)[C@H](O)[C@H]2O)[C@H]1O [PCM-0215007] | 
-1.4 | O=c1nc(N2CCOCC2)oc2c(-c3cccc4c3sc3ccccc34)cccc12 [PCM-0215826] | 
-36.6 | CC1(C)CC(=O)c2c(C(F)(F)F)nn(-c3ccc(C(N)=O)c(NC4CCC(O)CC4)c3)c2C1 (stereo not shown) [PCM-0214567] | 
1.5 | COc1cc(/C=C/C=O)ccc1O [PCM-0216477] | 
16.3 | O=C1c2cccc(O)c2C(=O)c2c(O)cc(CO)cc21 [PCM-0095288] | 
-6.2 | CC(C)n1nc(-c2ccc3oc(N)nc3c2)c2c(N)ncnc21 [PCM-0095423] | 
5.4 | CC(C)C[C@H](NC(=O)CNC(=O)c1cc(Cl)ccc1Cl)B(O)O [PCM-0095224] | 
-2.1 | CN1CCN(C(=O)c2cc3cc(Cl)ccc3[nH]2)CC1 [PCM-0095374] | 
-15.2 | COc1cc(OC2CCN(C)CC2)ccc1Nc1ncc2c(n1)n(C1CCCC1)c(=O)n2C [PCM-0095460] | 
6.2 | C=CS(=O)(=O)NC1CCN(C(=O)CNc2cc(I)c(Cl)cc2OC)CC1 [PCM-0215340] | 
29 | COc1ccc(-c2ccc3cc(C(=O)O)ccc3c2)cc1C12CC3CC(CC(C3)C1)C2 [PCM-0090276] | 
14.8 | COc1ccccc1OCC(O)COC(N)=O (stereo not shown) [PCM-0085814] | 
1.4 | CCc1cccc2c3c([nH]c12)C(CC)(CC(=O)O)OCC3 (stereo not shown) [PCM-0094929] | 
-51.7 | COc1nc(OCc2cccc(-c3ccccc3)c2C)ccc1CNCCNC(C)=O [PCM-0215525] | 
-18.5 | CC(=O)OC(CC(=O)O)C[N+](C)(C)C (stereo not shown) [PCM-0216588] | 
-19.5 | NCCCCCNCC12CC3CC(CC(C3)C1)C2 [PCM-0095503] | 

SMILES | inhibition at 10 µM [1] [%] | inhibition at 10 µM (read-out: BTK inhibition (%)) [%]
CC(C)=CCC[C@](C)(O[C@@H]1O[C@H](CO)[C@@H](O)[C@H](O)[C@H]1O)[C@H]1CC[C@]2(C)[C@@H]1[C@H](O)C[C@@H]1[C@@]3(C)CC[C@H](O)C(C)(C)[C@@H]3[C@@H](O[C@@H]3O[C@H](CO)[C@@H](O)[C@H](O)[C@H]3O[C@@H]3OC[C@@H](O)[C@H](O)[C@H]3O)C[C@]12C [PCM-0215161] | 5.5 | 
CCS(=O)(=O)N1CCC(C(C)n2c(C)c(C(=O)NCc3c(OC)cc(C)[nH]c3=O)c3ccccc32)CC1 (stereo not shown) [PCM-0215486] | -3.1 | 
C=C(C)[C@@H]1CC[C@]2(C(=O)O)CC[C@]3(C)[C@H](CC[C@@H]4[C@@]5(C)CC[C@H](O[C@@H]6OC[C@H](O)[C@H](O)[C@H]6O[C@@H]6O[C@@H](C)[C@H](O)[C@@H](O)[C@H]6O)[C@@](C)(CO)[C@@H]5CC[C@]43C)[C@@H]12 [PCM-0216514] | 34 | 
O=C1CCC[C@@H]2[C@H]3CCCN4CCC[C@@H](CN12)[C@@H]34 [PCM-0094866] | 11.7 | 
CN(C)CCC=C1c2ccccc2CCc2ccccc21 [PCM-0064521] | -22.6 | 

Source: article PMC8041284, “Tunable Methacrylamides for Covalent Ligand Directed Release Chemistry” (Journal of the American Chemical Society, 2021)
